From patent US8039639B2, “Kinase inhibitors and methods of use thereof” (Array BioPharma Inc., priority 2006, dated 2011)
Residues, ends and D or L forms follow the SMILES beside them. *: point of attachment. Cbz = O=C(OCc1ccccc1)*

Key:
RPMI 8226 = RPMI 8226 cell viability (CellTiter Blue); type: cell-based; settings: Homo sapiens; RPMI 8226, 72 hours; read-out: Proliferation IC50
Protocol: Cell viability was then measured using CellTiter Blue (Promega) to determine IC50 values for each compound (Table 8). […] MG-132 produced an IC50 that was within historical ranges of in-house testing (Table 8).

Tie2 = Tie2 (Homo sapiens, UniProt Q02763); test: protein kinase IC50 determination (ATP at Km); type: biochemical; settings: ATP concentration at Km
Sequence of Tie2 (Q02763 23-1124, species assumed): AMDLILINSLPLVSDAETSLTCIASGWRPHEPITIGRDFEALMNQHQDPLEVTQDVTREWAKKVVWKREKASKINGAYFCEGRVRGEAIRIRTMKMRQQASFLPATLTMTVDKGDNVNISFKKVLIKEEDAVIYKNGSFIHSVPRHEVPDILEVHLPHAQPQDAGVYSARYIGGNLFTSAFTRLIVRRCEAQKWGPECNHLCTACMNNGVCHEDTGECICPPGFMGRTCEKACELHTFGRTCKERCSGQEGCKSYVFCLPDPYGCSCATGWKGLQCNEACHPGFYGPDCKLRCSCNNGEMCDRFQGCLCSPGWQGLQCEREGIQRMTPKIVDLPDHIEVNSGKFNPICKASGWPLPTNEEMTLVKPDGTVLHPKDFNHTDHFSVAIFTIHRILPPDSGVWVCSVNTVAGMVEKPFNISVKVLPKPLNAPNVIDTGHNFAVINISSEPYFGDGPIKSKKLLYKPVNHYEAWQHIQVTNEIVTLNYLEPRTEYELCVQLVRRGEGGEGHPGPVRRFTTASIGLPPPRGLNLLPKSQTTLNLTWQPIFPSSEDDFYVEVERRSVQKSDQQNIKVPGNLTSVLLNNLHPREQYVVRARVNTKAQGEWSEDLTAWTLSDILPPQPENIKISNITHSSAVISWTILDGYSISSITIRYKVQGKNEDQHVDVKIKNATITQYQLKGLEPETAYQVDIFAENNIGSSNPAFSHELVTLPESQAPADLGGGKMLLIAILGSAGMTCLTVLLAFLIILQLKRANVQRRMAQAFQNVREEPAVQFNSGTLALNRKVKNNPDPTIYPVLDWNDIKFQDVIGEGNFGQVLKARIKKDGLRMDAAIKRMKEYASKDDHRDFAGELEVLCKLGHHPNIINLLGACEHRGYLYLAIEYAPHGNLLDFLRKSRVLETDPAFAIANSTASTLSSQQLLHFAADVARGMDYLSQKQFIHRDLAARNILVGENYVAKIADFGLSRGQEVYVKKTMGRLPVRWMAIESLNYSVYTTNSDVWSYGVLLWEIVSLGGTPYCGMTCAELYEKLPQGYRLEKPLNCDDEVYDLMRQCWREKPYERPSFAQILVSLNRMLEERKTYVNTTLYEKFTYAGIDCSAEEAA

Solubility determination = type: physicochemical
p38α = p38α (Homo sapiens, UniProt Q16539); test: in-house p38α radioactive kinase assay using ATF-2 as a substrate; type: biochemical; settings: ATF-2 substrate
Sequence of p38α (Q16539 whole entry, the tested form may be a part): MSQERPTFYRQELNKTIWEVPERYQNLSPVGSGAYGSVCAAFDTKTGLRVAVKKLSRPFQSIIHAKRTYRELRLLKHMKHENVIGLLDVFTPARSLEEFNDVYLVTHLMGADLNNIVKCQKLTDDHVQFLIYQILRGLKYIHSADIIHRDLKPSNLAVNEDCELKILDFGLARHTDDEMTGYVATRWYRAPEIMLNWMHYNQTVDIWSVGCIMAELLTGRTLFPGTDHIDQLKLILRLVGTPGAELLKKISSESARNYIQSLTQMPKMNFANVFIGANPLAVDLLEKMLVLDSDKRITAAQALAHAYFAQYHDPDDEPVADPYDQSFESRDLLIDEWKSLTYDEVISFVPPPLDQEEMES
Protocol: p38 activity was assayed at room temperature in a 100 μL reaction containing 5 nM activated p38α enzyme and 1 μM ATF-2 (Activating Transcription Factor 2 fusion protein) as the substrate in 25 mM HEPES (pH 7.4), 100 μM Vanadate, 1 mM DTT, 10 mM MgCl2 and 10 μM [γ-^33P]-ATP (˜0.1 μCi P^33/reaction). The reaction was terminated after 30-40 minutes by adding 25% TCA, allowed to stand for 5 minutes, and then transferred directly to a GF-B membrane filter plate. The filter was washed twice for 30 seconds with 0.5% phosphoric acid using a Tomtec Mach III Automated Harvestor. After washing, the vacuum was continued for 30 seconds to dry the filter. Approximately 30 μL of scintillant was added per well to the filter plate and then read in a Liquid Scintillation Counter (Packard TopCount HTS).

Abl = Abl (Homo sapiens, UniProt P00519); test: protein kinase IC50 determination (ATP at Km); type: biochemical; settings: ATP concentration at Km
Sequence of Abl (P00519 whole entry, species assumed): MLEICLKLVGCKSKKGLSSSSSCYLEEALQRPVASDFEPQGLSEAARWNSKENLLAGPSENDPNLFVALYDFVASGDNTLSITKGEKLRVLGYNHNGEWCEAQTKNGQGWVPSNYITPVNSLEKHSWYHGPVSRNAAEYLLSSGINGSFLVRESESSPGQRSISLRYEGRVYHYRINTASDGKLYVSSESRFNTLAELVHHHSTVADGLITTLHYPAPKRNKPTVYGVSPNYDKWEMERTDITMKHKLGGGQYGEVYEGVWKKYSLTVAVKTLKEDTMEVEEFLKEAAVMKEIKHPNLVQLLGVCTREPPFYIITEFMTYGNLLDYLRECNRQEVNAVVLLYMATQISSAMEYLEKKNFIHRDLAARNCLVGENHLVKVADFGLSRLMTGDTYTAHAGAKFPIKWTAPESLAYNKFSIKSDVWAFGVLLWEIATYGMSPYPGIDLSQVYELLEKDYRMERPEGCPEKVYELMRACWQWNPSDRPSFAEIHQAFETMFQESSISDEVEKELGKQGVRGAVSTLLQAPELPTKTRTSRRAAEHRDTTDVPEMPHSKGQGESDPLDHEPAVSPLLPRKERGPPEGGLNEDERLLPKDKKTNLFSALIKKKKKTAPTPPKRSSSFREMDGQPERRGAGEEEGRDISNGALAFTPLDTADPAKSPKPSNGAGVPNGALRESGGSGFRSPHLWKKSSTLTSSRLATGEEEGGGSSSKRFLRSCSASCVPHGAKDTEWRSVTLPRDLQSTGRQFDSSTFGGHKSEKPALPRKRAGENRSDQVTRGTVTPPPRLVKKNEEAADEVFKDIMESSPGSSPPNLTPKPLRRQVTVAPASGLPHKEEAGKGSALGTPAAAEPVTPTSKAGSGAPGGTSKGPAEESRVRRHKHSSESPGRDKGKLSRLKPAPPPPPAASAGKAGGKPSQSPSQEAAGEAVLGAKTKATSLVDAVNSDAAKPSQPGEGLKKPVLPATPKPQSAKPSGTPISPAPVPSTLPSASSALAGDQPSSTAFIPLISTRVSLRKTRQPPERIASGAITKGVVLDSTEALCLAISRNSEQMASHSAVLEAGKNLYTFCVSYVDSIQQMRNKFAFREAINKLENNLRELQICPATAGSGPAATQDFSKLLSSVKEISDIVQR

K562 cells = test: K562 subcutaneous tumor model (BCR-Abl-driven tumors); type: in vivo, Female Scid-beige mice; settings: K562 tumors, PO ×7, dosed as Compound 74
Protocol: Test compounds were administered by oral gavage at the indicated doses and schedules when tumors reached 200±50 mm^3 in size. […] Tumor size and body weight were monitored throughout the study.

IC50 (Tie2) | solubility (Solubility determination; pH 6.5, aqueous buffer) | solubility (Solubility determination; pH 7.4, aqueous buffer) | IC50 (p38α) | IC50 (Abl) | solubility (Solubility determination; pH 1.2, simulated gastric fluid) | SMILES | IC50 (RPMI 8226) | % Regression (K562 cells; 30 mg/kg BID) | % Regression (K562 cells; 100 mg/kg BID) | % Regression (K562 cells; 100 mg/kg QD)
– | – | – | – | – | – | CC(C)C[C@@H](C=O)NC(=O)[C@H](CC(C)C)NC(=O)[C@H](CC(C)C)NC(=O)OCc1ccccc1 [MG-132, reference compound] (Cbz-Leu-Leu-Leu-aldehyde) | 114 nM | – | – | –
> 500 nM | < 1 µg/mL | < 1 µg/mL | < 2 nM | > 500 nM | – | Cn1nc(C(C)(C)C)cc1NC(=O)NCc1cc(F)ccc1Oc1ccc2c(cnn2CC(C)(C)O)c1 [Example 138] | – | – | – | –
4 nM | < 1 µg/mL | < 1 µg/mL | < 2 nM | 10 nM | – | Cc1ccc(-n2nc(C(C)(C)C)cc2NC(=O)NCc2cc(F)ccc2Oc2ccc3c(cnn3C)c2)cc1 [Example 94] | – | – | – | –
– | – | – | – | – | < 1000 µg/mL | Cc1ccc(-n2nc(C(C)(C)C)cc2NC(=O)NCc2cc(F)ccc2Oc2ccc3c(cnn3CCOP(=O)(O)O)c2)cc1 [Compound 74, 2-(5-(2-(3-(3-tert-butyl-1-p-tolyl-1H-pyrazol-5-yl)ureido)methyl)-4-fluorophenoxy)-1H-indazol-1-yl)ethyl dihydrogenphosphate] | – | tumor stasis | 94% | tumor stasis
